Experimental findings from patent publication US7563793B2, “Pyrrolo[1,2-a]quinoxalin-5-(4H)-yl)sulfonyls and carbonyls and their use as estrogenic agents” (Wyeth, priority 2004, dated 2009) are described below.

The test system of series [1] is IL-6. Nature of the series: IL-6 assay (ELISA) in Ad5-wt-ER infected HAECT-1 cells (IL-1β induced). It is filed as cell-based, human. The settings on record: Homo sapiens; for pIC50: HAECT1; for Emax: HAECT1, relative to maximal inhibition observed with E2, read-out: IL-6 Efficacy. As to the method: (§1) After four hours, cells were washed with EBM-BSA and incubated overnight in the same medium. […] After two hours, cells were washed and incubated at 34° C. for 1 hour. […] Control (no ER infection) cells were processed as above without Ad5-wt-hERα virus infection. […] Cells were subsequently washed with 300 μl of Dulbecco's phosphate buffered saline and lysed in 50 μl of Cell Culture Lysis Reagent (Promega). Luciferase was determined on a Wallac Victor^2 Luminometer (Gaithersburg, Md.) using 10 μl of lysate and mixing with 100 lμof Promega Luciferase Assay reagent. […] For IC50 and EC50 calculations, mean IL-6, luciferase or CK values versus log10 of the compound concentration were fitted to a four parameter logistic equation. The IC50/EC50 value, ‘Hill slope’, upper and lower limits of the curve were iteratively estimated.

The subject of series [2] is creatine kinase. Nature of the series: Creatine kinase assay in Ad5-wt-ER infected HAECT-1 cells. In kind it is cell-based, human. The settings on record: for pEC50 / Emax: Homo sapiens; for pEC50: HAECT1, CK stimulation, N/O = activity not observed at concentrations tested, read-out: CK IC50; for Emax: HAECT1, relative to maximal stimulation observed with E2, read-out: CK Efficacy; for CK Efficacy: relative to maximal stimulation observed with E2. The method, then: as §1

In series [3] the test system is ER/Nf-kB. Kind of series: ER/NF-κB luciferase reporter assay in Ad5-wt-ER infected HAECT-1 cells (IL-1β induced). It is filed as cell-based, human. As to conditions: for ER/Nf-kB Efficacy: relative to maximal inhibition observed with E2. As to the method:
as §1

Structures are written as SMILES. pEC50, pIC50: −log10 of the molar value.

In the case of `CC[C@H]1c2ccc(C#N)n2-c2ccc(Br)cc2N1S(=O)(=O)c1ccc(O)cc1` [Example 89, (4S)-7-bromo-4-ethyl-5-[(4-hydroxyphenyl)sulfonyl]-4,5-dihydropyrrolo[1,2-a]quinoxaline-1-carbonitrile], the melting point (usually the temperature, or range, at which the solid turns liquid) lay within 189 to 191 °C. Besides, in series [1], the negative logarithm of the IC50 (pIC50) (commonly the IC50 on a negative log10 scale, so that one unit is a factor of ten) is 6.82 and the Emax is 188%. For the same compound, in series [2], the pEC50 is 8.00 and the Emax is 7%.

`CCC1c2cccn2-c2c(cc(F)c(F)c2F)N1S(=O)(=O)c1cccc(O)c1` (centres unmarked) [Example 100, 3-[(4-ethyl-7,8,9-trifluoropyrrolo[1,2-a]quinoxalin-5(4H)-yl)sulfonyl]phenol] returned a melting point of 143 to 145 °C. In addition, in series [1], the pIC50 was 7.85 and the Emax is 193%. Moreover, in series [2], the pEC50 is 7.00 and the Emax was determined as 42%.

`CC[C@@H]1c2cccn2-c2ccc(Cl)cc2N1C(=O)c1ccc(O)cc1O` [125 (R), 4-{[(4R)-7-chloro-4-ethylpyrrolo[1,2-a]quinoxalin-5(4H)-yl]carbonyl}benzene-1,3-diol] gave a melting point of 213 to 214 °C. Moreover, in series [1], the negative-log IC50 (pIC50) was 9.40 and the Emax amounted to 120%.

`CC[C@@H]1c2cccn2-c2ccc(Br)cc2N1S(=O)(=O)c1ccc(O)cc1` [Example 78, 4-{[(4R)-7-bromo-4-ethylpyrrolo[1,2-a]quinoxalin-5(4H)-yl]sulfonyl}phenol] yielded a melting point of 187 to 189 °C. In series [1], the pIC50 is 5.96 and the Emax was 40%.

In turn, `CC[C@@H]1c2cccn2-c2cc(F)c(F)cc2N1S(=O)(=O)c1ccc(O)c(C)c1` [102 (R), 4-{[(4R)-4-ethyl-7,8-difluoropyrrolo[1,2-a]quinoxalin-5(4H)-yl]sulfonyl}-2-methylphenol] displayed a melting point of 160 to 162 °C. Moreover, in series [1], the pIC50 was 6.35 and the Emax is 117%. For the same compound, in series [2], the pEC50 was 5.75 and the Emax came out at 31%.

Consider `CCC1c2cccn2-c2ccc(F)cc2N1C(=O)c1cccc(O)c1` (centres unmarked) [Example 126, 3-[(4-ethyl-7-fluoropyrrolo[1,2-a]quinoxalin-5(4H)-yl)carbonyl]phenol], for which the melting point lay in the range of 115 to 117 °C.

As for `CC[C@@H]1c2ccc(C#N)n2-c2ccc(Br)cc2N1S(=O)(=O)c1ccc(O)cc1` [Example 91, (4R)-7-bromo-4-ethyl-5-[(4-hydroxyphenyl)sulfonyl]-4,5-dihydropyrrolo[1,2-a]quinoxaline-1-carbonitrile], the melting point fell in the range of 182 to 185 °C. Moreover, in series [1], the pIC50 was 5.84 and the Emax is 86%. In addition, the Emax in series [2] was -4%.

In turn, `C[C@@H]1c2cccn2-c2ccc(F)cc2N1C(=O)c1ccc(O)cc1` [123 (R), 4-{[(4R)-7-fluoro-4-methylpyrrolo[1,2-a]quinoxalin-5(4H)-yl]carbonyl}phenol] registered a melting point of 125 to 129 °C. Further, in series [1], the negative-log IC50 (pIC50) is 7.64 and the Emax was 112%. Further, in series [2], the pEC50 was 6.70 and the Emax was determined as 27%.

`CCC1c2cccn2-c2ccc(F)cc2N1C(=O)c1ccc(O)cc1O` (centres unmarked) [Example 120, 4-[(4-ethyl-7-fluoropyrrolo[1,2-a]quinoxalin-5(4H)-yl)carbonyl]benzene-1,3-diol] registered a melting point of 153 to 155 °C.

For `CC[C@H]1c2cccn2-c2c(cc(F)c(F)c2F)N1S(=O)(=O)c1ccc(O)cc1` [97 (S), 4-{[(4S)-4-ethyl-7,8,9-trifluoropyrrolo[1,2-a]quinoxalin-5(4H)-yl]sulfonyl}phenol], the melting point was 155 to 156 °C. In series [1], the negative-log IC50 (pIC50) is 8.05 and the Emax came out at 134%. In addition, in series [2], the pEC50 is 7.51 and the Emax was found to be 37%.

Take `CCC1c2cccn2-c2ccc(Br)cc2N1S(=O)(=O)c1cccc(O)c1` (centres unmarked) [Example 82, 3-[(7-bromo-4-ethylpyrrolo[1,2-a]quinoxalin-5(4H)-yl)sulfonyl]phenol]: the melting point fell in the range of 176 to 178 °C. Also, in series [1], the negative-log IC50 (pIC50) is 7.29 and the Emax turned out to be 114%.

In turn, `CCC1c2ccc(C#N)n2-c2cc(F)c(F)cc2N1S(=O)(=O)c1cccc(O)c1` (centres unmarked) [Example 85, 4-ethyl-7,8-difluoro-5-[(3-hydroxyphenyl)sulfonyl]-4,5-dihydropyrrolo[1,2-a]quinoxaline-1-carbonitrile] came in with a melting point of 179 to 182 °C. In addition, in series [1], the negative logarithm of the IC50 (pIC50) is 6.16 and the Emax worked out at 112%.

Turning to `CCC1c2ccc(C=O)n2-c2ccc(F)cc2N1S(=O)(=O)c1ccc(O)c(C)c1` (centres unmarked) [Example 25, 4-ethyl-7-fluoro-5-[(4-hydroxy-3-methylphenyl)sulfonyl]-4,5-dihydropyrrolo[1,2-a]quinoxaline-1-carboxaldehyde], the melting point lay in the range of 192 to 194 °C.

Compound `CCC1c2ccc(C#N)n2-c2cc(F)c(F)cc2N1S(=O)(=O)c1ccc(O)cc1` (centres unmarked) [Example 93, 4-ethyl-7,8-difluoro-5-[(4-hydroxyphenyl)sulfonyl]-4,5-dihydropyrrolo[1,2-a]quinoxaline-1-carbonitrile] gave a melting point of 205 °C. Further, in series [1], the pIC50 was 6.52 and the Emax is 105%.

For `CCC1c2ccc(C(N)=O)n2-c2ccc(F)cc2N1S(=O)(=O)c1ccc(O)cc1` (centres unmarked) [Example 36, 4-ethyl-7-fluoro-5-[(4-hydroxyphenyl)sulfonyl]-4,5-dihydropyrrolo[1,2-a]quinoxaline-1-carboxamide], the melting point is 168 to 170 °C (dec.).

Take `CCC1c2cccn2-c2c(cc(F)c(F)c2F)N1S(=O)(=O)c1ccc(O)cc1` (centres unmarked) [Example 98, 4-[(4-ethyl-7,8,9-trifluoropyrrolo[1,2-a]quinoxalin-5(4H)-yl)sulfonyl]phenol]: the melting point is 175 to 176 °C. Further, in series [1], the pIC50 is 7.04 and the Emax worked out at 117%.

`CC[C@@H]1c2ccc(C#N)n2-c2cc(F)c(F)cc2N1S(=O)(=O)c1ccc(O)cc1` [Example 101 (R), (4R)-4-ethyl-7,8-difluoro-5-[(4-hydroxyphenyl)sulfonyl]-4,5-dihydropyrrolo[1,2-a]quinoxaline-1-carbonitrile] had a melting point of 194 to 195 °C.

The compound `CC[C@H]1c2ccc(C#N)n2-c2cc(F)c(F)cc2N1S(=O)(=O)c1ccc(OS(N)(=O)=O)cc1` [Example 104, 4-{[(4S)-1-cyano-4-ethyl-7,8-difluoropyrrolo[1,2-a]quinoxalin-5(4H)-yl]sulfonyl}phenyl sulfamate] had a melting point of 196 to 201 °C. Further, in series [1], the negative logarithm of the IC50 (pIC50) was 6.75 and the Emax was found to be 110%.

As for `CCC1c2cccn2-c2ccc(C(F)(F)F)cc2N1S(=O)(=O)c1ccc(O)c(C)c1` (centres unmarked) [Example 58, 4-{[4-ethyl-7-(trifluoromethyl)pyrrolo[1,2-a]quinoxalin-5-(4H)-yl]sulfonyl}-2-methylphenol], in series [2], the “CK Efficacy” value came out at 42%. Further, in series [3], the negative logarithm of the IC50 (pIC50) is 7.07 and the “ER/Nf-kB Efficacy” value came to 132%.

With `CCOC(=O)Oc1ccc(S(=O)(=O)N2c3ccc(Cl)cc3-n3cccc3C2CC)cc1` (centres unmarked) [Example 70, 4-[(8-chloro-4-ethylpyrrolo[1,2-a]quinoxalin-5-(4H)-yl)sulfonyl]phenyl ethyl carbonate], the “CK Efficacy” value in series [2] is 45%. In addition, in series [3], the pIC50 is 6.82 and the “ER/Nf-kB Efficacy” value came to 98%.

`CCC1c2ccc(C#N)n2-c2ccc(Br)cc2N1S(=O)(=O)c1ccc(O)cc1` (centres unmarked) [Example 80, 7-bromo-4-ethyl-5-[(4-hydroxyphenyl)sulfonyl]-4,5-dihydropyrrolo[1,2-a]quinoxaline-1-carbonitrile] showed a melting point of 190 to 192 °C. In addition, in series [1], the pIC50 is 6.35 and the Emax amounted to 103%.

Regarding `CCC1c2ccc(Br)n2-c2ccc(F)cc2N1S(=O)(=O)c1ccc(O)c(C)c1` (centres unmarked) [Example 29, 4-[(1-bromo-4-ethyl-7-fluoropyrrolo[1,2-a]quinoxalin-5-(4H)-yl)sulfonyl]-2-methylphenol], the “CK Efficacy” value in series [2] was 28%. Also, in series [3], the negative-log IC50 (pIC50) is 6.23 and the “ER/Nf-kB Efficacy” value is listed as 100%.

Consider `CCC1c2cccn2-c2ccc(F)cc2N1S(=O)(=O)c1ccc(O)c(C)c1` (centres unmarked) [Example 19, 4-[(4-ethyl-7-fluoropyrrolo[1,2-a]quinoxalin-5-(4H)-yl)sulfonyl]-2-methylphenol], for which, in series [2], the “CK Efficacy” value turned out to be 52%. Besides, in series [3], the negative logarithm of the IC50 (pIC50) is 7.47 and the “ER/Nf-kB Efficacy” value is 94%.

In turn, `CC[C@H]1c2cccn2-c2cc(F)c(F)cc2N1S(=O)(=O)c1ccc(O)c(C)c1` [102 (S), 4-{[(4S)-4-ethyl-7,8-difluoropyrrolo[1,2-a]quinoxalin-5(4H)-yl]sulfonyl}-2-methylphenol] returned a melting point of 161 to 163 °C. In addition, in series [1], the pIC50 is 8.08 and the Emax amounted to 161%.

`CCC1c2cccn2-c2ccc(Cl)cc2N1C(=O)c1ccc(O)cc1O` (centres unmarked) [Example 124, 4-[(7-chloro-4-ethylpyrrolo[1,2-a]quinoxalin-5(4H)-yl)carbonyl]benzene-1,3-diol] yielded a melting point of 198 to 201 °C.
